# In patent publication US20100166737A1, “P38Alpha as a Therapeutic Target in Bladder Carcinoma” (INSTITUT CURIE, priority 2007, published 2010):
# Experiments:
# [1] = system: transgenic mice tumor cell proliferation; experiment: BrdU labelling, snout tumour cell proliferation in K5-FGFR3-S249C transgenic mice; format: in vivo; settings: 100 μM SB203580 on snout daily during 2 weeks; FIG. 3D
# Method: (§1) Transgenic mice (K5-FGFR3-S249C) expressing mutated receptor FGFR3b— S249C in basal cells of the epidermis were established previously (Logi& et al 2005, Hum. Mol. Genet. 14, 1153-1160). 40 μl of 100 μM SU5402 or of 100 μM SB203580 or of vehicule (acetone) were applied daily during 2 weeks on snout of 3 to 4 months old transgenic mice who had developed epidermal tumours on snout or of control littermates mice. Two hours prior sacrifice mice were injected (i.p), with 0.25 mg/g body weight Brdu (Sigma, Saint-Quentin Falavier, France). Brdu immunohistochemistry was performed on parafine embed snout tissue with BrdU in situ detection kit (BD Pharmingen, San Diego, Calif., USA) according to the manufacturer's instructions. The number of BrdU-labeled cells among 500 cells from basal epidermis layer was determined for each mouse. Total snout cells lysate (75 μg) were analyzed as described above using antibodies against p38 and phospho-p38 (Pp38).
# [2] = system: NIH-3T3 control cells; experiment: Morphology analysis of NIH-3T3 control cells; format: cell-based; settings: data not shown
# Method: (§2) NIH-3T3 cells were cultured 48 h in presence of different inhibitors, SB203580 and SU5402 (Calbiochem, Merck Eurolab, Fontenay Sous Bois, France), and pictures were taken using a phase-contrast microscope.
# [3] = system: MGH-U3 xenograft; experiment: MGH-U3 xenograft growth in athymic nude mice; format: in vivo; settings: intratumoral, daily, 100 μl of 20 μM, up to 25 days; FIG. 2D
# Method: Ten six-week-old female Swiss nu/nu mice were raised in the animal facilities of the Curie Institute in specified pathogen-free conditions. Their care and housing were in accordance with the institutional guidelines of the French National Ethics Committee (Ministere de l'Agriculture et de la Forêt, Direction de la Santë et de la Protection Animate, Paris, France) and were supervised by authorised investigators. Each mouse was injected subcutaneously in each flank (dorsal region) with 4×10^6 cells/site. When tumours reached 50 mm^3 (+/−10), mice were randomly separated into two group of 5 mice. 100 μl of 20 μM SB203580 or equal volume of PBS were administrated daily in tumours. Tumour formation was monitored for up to 25 days and the size of tumours was measured with Vernier calipers: two perpendicular diameters were used to estimate tumour volumes by the formule ab^2/2, where a is the largest and b the smallest diameter.
# [4] = system: control mice basal epidermal cells; experiment: BrdU labelling, basal epidermal cell proliferation in control littermate mice; format: in vivo; settings: 100 μM SB203580 on snout daily during 2 weeks, FIG. 3D
# Method: as §1
# [5] = system: FGFR3-S249C-expressing NIH-3T3 cells (clone S249C1.2); experiment: Morphology analysis of FGFR3-S249C-expressing NIH-3T3 cells; format: cell-based; settings: 30 μM, 48 h; FIG. 1C
# Method: as §2
# [6] = system: MGH-U3 cells; experiment: Soft agar assay, anchorage-independent growth of MGH-U3 cells; format: cell-based, human; settings: 14 days; FIG. 2C
# Method: (§3) For NIH-3T3, 30,000 transfected cells were added, in triplicate, to each well of a 12-well plate containing DMEM supplemented with 10% NCS and solidified with agar. For MGH-U3, 20,000 non-transfected or siRNA-transfected cells were added, to triplicate wells of 12-well plates containing MEM supplemented with 10% FCS and agar. When necessary, both cell types were cultured in the presence or absence of different inhibitors in agar and in culture medium. The same amount of inhibitor was added to the culture medium weekly.
# (§4) The plates were incubated for 21 or 14 days for NIH-3T3 and MGH-U3 cells respectively, and colonies with diameters greater than 50 μm were then scored as positive, using a phase-contrast microscope equipped with a measuring grid.
# [7] = system: NIH-3T3 cell line transfected by mutated FGFR3-S249C; settings: AACR abstract April 2005; cited from earlier work
# [8] = system: FGFR3-S249C-expressing cells (S249C1.2); experiment: Soft agar assay of FGFR3-S249C-expressing NIH-3T3 cells; format: cell-based; settings: 21 days, colonies greater than 50 μm; FIG. 1D
# Method: as §3, §4
# [9] = system: NIH-3T3 cell line transfected by mutated FGFR3-S249C; settings: AACR abstract April 2005; cited from earlier work; remark: listed apart in the source
# [10] = system: p38 phosphorylation in MGH-U3 cells; experiment: Immunoblot of p38 phosphorylation in MGH-U3 cells; format: cell-based, human; settings: 30 μM SU5402, 24 hours; FIG. 2A
# Method: (§5) Transfected NIH-3T3 cells were washed once with PBS and serum-starved for 24 h. Where required, cells were stimulated for 5 min with 20 ng/ml FGF1 in the presence of 50 μg/ml heparin at 37° C. They were then lysed in lysis buffer (50 mM Tris-HCl (pH 7.4), 150 mM NaCl, 1% NP-40, 0.25% sodium deoxycholate, 1 mM EDTA, 1 mM Na3VO4, 5 mM NaF, 1 μ/ml aprotinin, 1 μg/ml leupeptin and 1 μg/ml pepstatin) and the lysates were clarified by centrifugation. The protein concentrations of the supernatants were determined with the Biorad Bradford Protein Assay Kit (BioRad, Ivry sur Seine, France). Proteins from total cell lysates (75 μg protein) were resolved by SDS-PAGE on 10% polyacrylamide gels, electrotransferred to Immobilon-P membrane in 25 mM Tris, pH 8.3, 200 mM glycine, 10% ethanol and analyzed using antibodies against p38 (#9212), Aid (#9272), p42/p44 (#9102) and the phosphorylated forms of these proteins (phospho AKT (Thr308) #9275; phospho p42/p44 (thr202/tyr204) # 9101; phospho p38 (thr180/tyr182) (cell signaling Technology, Ozyme, Montigny le Bretonneux, France)
# MGH-U3 total cell lysates (75 μg) were analyzed similarly using antibodies against p38, phospho-p38 and Akt.
# [11] = system: p38 phosphorylation in transgenic mice snout; experiment: Immunoblot of p38 phosphorylation in snout of K5-FGFR3-S249C transgenic mice; format: in vivo; settings: 100 μM SU5402 on snout daily during 2 weeks; FIG. 3C
# Method: as §1
# [12] = system: p38 phosphorylation in FGFR3-S249C expressing NIH-3T3 clones; experiment: Immunoblot of p38 phosphorylation in FGFR3-S249C expressing NIH-3T3 clones; format: cell-based; settings: 30 μM SU5402, 24 hours; clones S249C1.1 and S249C1.2; FIG. 1B
# Method: as §5
Structure (SMILES),tumor cell proliferation (BrdU labelling) [1],effect on the control cell phenotype [2],MGH-U3 xenograft growth [3],basal epidermal cells proliferation (BrdU labelling) [4],transformed phenotype (morphology) [5],colonies on soft agar relative to control cells [6],abilities to form colonies in soft agar [7],ability to form colonies in a soft agar assay [8],transformed phenotype of the cells [9],p38 phosphorylation [10],p38 phosphorylation [11],p38 phosphorylation [12]
C[S+]([O-])c1ccc(-c2nc(-c3ccncc3)c(-c3ccc(F)cc3)[nH]2)cc1 (stereo not drawn) [SB203580],significant decreased,no effect,significantly reduced,no effect,reverted,one third,inhibits,inhibited,inhibits,,,
Cc1c[nH]c(/C=C2\C(=O)Nc3ccccc32)c1CCC(=O)O [SU5402],,no effect,,,reverted,,,inhibited,,suppressed,decreased,inhibited
